The values below come from ChEMBL document CHEMBL2074479, “Organic anion transporting polypeptides expressed in liver and brain mediate uptake of microcystin” (Toxicol Appl Pharmacol, 2005).

For data set [1], the target named is T1, Solute carrier organic anion transporter family member 1B1 (OATP1B1) (Homo sapiens, UniProt Q9Y6L6).
T1 sequence (Q9Y6L6 whole entry): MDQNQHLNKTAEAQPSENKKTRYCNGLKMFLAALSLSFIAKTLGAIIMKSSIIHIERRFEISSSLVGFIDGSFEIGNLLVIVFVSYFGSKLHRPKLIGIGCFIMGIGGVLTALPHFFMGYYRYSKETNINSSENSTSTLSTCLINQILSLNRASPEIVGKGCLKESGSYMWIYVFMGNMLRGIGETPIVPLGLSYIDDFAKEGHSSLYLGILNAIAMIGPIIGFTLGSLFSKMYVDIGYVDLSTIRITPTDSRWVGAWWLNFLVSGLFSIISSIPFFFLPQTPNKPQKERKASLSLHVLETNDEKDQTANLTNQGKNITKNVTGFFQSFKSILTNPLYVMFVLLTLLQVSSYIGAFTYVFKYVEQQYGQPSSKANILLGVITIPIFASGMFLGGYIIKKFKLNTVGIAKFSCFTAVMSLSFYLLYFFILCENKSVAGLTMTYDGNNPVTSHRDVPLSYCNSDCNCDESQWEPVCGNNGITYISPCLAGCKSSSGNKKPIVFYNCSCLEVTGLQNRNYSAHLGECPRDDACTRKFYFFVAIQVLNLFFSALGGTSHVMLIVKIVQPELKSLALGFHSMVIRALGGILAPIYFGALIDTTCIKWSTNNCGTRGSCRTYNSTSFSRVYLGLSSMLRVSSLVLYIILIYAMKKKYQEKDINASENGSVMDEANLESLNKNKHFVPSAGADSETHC
The data set is described as follows: (§1) TP_TRANSPORTER: uptake in Xenopus laevis oocytes. The format is functional, cell-based, Oocyte.

Data set [2] has as its target T2, Solute carrier organic anion transporter family member 1A2 (OATP1A2) (Homo sapiens, UniProt P46721).
T2 sequence (P46721 whole entry): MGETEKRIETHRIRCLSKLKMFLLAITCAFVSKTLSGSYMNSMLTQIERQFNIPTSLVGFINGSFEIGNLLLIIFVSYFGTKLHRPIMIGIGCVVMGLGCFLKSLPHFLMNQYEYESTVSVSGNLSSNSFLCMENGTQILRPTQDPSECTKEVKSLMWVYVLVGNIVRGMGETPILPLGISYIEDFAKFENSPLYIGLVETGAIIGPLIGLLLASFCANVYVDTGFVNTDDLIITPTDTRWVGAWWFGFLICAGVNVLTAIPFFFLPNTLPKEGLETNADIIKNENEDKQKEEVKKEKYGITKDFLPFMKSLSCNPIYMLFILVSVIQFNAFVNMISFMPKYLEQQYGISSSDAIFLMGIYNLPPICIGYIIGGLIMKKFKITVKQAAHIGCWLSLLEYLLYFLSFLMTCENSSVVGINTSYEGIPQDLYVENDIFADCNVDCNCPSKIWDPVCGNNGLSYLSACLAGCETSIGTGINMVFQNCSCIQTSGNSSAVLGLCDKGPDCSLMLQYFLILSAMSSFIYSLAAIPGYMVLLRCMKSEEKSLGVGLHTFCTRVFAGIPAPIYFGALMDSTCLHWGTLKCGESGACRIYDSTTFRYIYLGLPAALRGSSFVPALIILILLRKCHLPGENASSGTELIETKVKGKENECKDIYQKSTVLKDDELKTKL
Described as §1. The format is functional, cell-based, Oocyte.

In data set [3] the target is T3, Solute carrier organic anion transporter family member 1B3 (OATP1B3) (Homo sapiens, UniProt Q9NPD5).
T3 sequence (Q9NPD5 whole entry): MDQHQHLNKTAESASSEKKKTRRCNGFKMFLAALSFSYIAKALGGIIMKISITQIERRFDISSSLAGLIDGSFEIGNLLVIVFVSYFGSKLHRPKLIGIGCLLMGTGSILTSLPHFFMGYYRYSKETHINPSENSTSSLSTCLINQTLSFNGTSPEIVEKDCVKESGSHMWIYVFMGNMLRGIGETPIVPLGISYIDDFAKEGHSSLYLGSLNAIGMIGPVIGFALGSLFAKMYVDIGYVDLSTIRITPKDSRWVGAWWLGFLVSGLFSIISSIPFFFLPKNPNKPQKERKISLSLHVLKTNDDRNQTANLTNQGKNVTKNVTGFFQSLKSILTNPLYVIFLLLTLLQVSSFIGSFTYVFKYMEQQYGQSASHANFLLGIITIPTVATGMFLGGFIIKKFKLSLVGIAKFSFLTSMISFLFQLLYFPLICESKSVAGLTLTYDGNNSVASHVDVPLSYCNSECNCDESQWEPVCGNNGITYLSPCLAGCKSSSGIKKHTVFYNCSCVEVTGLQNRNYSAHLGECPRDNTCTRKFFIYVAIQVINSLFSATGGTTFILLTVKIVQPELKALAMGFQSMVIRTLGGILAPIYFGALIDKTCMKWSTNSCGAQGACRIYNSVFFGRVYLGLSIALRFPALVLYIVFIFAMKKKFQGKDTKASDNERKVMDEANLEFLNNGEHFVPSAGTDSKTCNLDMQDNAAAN
Described as §1. The format is functional, cell-based, Oocyte.

Data set [4] has as its target T4, Solute carrier organic anion transporter family member 1B2 (Rattus norvegicus, UniProt Q9QZX8).
T4 sequence (Q9QZX8 whole entry): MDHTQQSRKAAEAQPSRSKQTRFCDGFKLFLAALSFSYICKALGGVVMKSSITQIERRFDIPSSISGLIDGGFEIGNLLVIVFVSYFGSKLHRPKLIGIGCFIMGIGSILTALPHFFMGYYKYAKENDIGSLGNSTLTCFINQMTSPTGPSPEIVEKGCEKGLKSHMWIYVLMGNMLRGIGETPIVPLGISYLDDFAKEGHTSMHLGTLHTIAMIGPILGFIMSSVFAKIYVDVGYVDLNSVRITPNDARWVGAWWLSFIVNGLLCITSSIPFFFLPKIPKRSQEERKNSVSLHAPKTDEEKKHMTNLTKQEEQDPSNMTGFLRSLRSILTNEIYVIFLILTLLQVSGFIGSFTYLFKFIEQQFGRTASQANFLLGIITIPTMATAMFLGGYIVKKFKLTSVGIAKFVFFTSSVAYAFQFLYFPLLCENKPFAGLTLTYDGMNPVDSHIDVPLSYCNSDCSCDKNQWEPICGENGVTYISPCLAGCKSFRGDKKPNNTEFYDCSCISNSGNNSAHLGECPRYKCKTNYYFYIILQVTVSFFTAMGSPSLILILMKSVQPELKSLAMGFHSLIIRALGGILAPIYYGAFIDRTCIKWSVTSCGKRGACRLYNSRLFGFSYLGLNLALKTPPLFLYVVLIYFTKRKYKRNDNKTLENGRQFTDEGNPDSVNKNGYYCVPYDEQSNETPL
The data set is described as §1. The format is functional, cell-based. To be noted: oocyte.

The target in data set [5] is T5, Solute carrier organic anion transporter family member 1A1 (Rattus norvegicus, UniProt P46720).
T5 sequence (P46720 whole entry): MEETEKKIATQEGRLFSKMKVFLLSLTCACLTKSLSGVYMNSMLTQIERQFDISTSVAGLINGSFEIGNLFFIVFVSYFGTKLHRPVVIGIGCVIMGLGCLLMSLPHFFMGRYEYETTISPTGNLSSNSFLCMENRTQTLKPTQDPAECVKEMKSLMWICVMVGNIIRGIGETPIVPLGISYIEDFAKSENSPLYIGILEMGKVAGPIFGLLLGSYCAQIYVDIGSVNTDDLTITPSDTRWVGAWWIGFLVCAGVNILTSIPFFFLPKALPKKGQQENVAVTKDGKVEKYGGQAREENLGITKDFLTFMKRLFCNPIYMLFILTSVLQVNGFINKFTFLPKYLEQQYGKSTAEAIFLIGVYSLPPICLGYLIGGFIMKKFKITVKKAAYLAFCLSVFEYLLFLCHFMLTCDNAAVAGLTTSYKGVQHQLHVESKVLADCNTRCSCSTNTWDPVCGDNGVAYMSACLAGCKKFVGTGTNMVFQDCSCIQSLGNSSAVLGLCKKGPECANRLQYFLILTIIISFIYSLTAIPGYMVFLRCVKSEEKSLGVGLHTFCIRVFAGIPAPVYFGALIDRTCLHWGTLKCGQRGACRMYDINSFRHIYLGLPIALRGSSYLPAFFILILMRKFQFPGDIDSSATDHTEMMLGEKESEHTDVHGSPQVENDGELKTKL
The data set is described as §1. The format is functional, cell-based. As to conditions: oocyte.

Data set [6] has as its target T6, Solute carrier organic anion transporter family member 1A4 (Rattus norvegicus, UniProt O35913).
T6 sequence (O35913 whole entry): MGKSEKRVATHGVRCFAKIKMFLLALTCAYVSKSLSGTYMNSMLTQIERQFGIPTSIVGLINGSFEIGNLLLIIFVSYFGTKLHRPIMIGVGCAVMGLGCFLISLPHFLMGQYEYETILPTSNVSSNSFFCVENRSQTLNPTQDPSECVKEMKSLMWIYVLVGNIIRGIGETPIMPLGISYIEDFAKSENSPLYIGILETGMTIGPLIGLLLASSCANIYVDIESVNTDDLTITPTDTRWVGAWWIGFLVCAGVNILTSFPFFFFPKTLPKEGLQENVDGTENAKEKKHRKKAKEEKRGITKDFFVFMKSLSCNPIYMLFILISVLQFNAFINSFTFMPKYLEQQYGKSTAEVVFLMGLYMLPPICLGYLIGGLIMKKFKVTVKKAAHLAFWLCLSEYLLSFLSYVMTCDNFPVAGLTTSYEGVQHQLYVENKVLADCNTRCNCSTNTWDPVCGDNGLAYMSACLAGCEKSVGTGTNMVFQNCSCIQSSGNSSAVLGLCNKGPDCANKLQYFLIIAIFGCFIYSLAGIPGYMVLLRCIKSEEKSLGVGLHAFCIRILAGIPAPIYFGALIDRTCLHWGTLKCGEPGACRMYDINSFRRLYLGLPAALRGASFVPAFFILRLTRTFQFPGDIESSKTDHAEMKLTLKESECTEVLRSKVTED
The data set is described as §1. The format is functional, cell-based. As to conditions: oocyte.

Data set [7] deals with T7, Solute carrier organic anion transporter family member 2B1 (Homo sapiens, UniProt O94956).
T7 sequence (O94956 whole entry): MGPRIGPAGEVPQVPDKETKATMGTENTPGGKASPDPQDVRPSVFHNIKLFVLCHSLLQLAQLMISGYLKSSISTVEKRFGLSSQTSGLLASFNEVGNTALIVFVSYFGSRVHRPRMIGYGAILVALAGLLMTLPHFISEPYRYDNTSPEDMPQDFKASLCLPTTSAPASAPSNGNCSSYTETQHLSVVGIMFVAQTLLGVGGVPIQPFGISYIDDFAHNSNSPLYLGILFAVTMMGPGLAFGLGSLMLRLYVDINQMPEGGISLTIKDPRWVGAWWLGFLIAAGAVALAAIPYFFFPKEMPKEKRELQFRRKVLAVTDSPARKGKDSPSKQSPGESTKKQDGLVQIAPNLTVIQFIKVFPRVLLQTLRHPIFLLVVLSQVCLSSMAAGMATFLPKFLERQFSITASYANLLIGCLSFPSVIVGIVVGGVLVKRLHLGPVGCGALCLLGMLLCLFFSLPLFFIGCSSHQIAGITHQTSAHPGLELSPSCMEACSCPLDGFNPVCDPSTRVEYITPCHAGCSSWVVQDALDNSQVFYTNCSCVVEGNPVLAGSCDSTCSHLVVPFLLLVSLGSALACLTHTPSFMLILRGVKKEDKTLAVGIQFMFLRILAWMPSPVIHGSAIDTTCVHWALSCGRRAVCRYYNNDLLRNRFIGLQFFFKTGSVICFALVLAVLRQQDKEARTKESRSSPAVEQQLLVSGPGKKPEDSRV
Described as §1. The format is functional, cell-based. As to conditions: oocyte.

Numbered stars: 1 amine (or outer) side, 2 acyl side, 3 side chain; on linkers, the order of the positions; unused ones are H or OH. Bridge positions count the residues as written; N and C are the ends. Square brackets hold non-standard residues; d marks the D form. Peptide text beside a SMILES is read from it. Adda = CO[C@@H](Cc1ccccc1)[C@@H](C)/C=C(C)/C=C/[C@H](N[*:1])[C@H](C)C(=O)[*:2]; dAsp(3S-Me) = C[C@H](C(=O)[*:3])[C@@H](N[*:1])C(=O)[*:2]; d(γGlu) = O=C(O)[C@@H](CCC(=O)[*:2])N[*:1]; NMeDha = C=C(NC)C(=O)O

One may read the Km as the substrate concentration at which the rate is half of its maximum. As for `C=C1C(=O)N[C@H](C)C(=O)N[C@@H](CC(C)C)C(=O)N[C@@H](C(=O)O)[C@H](C)C(=O)N[C@@H](CCCNC(=N)N)C(=O)N[C@@H](/C=C/C(C)=C/[C@H](C)[C@H](Cc2ccccc2)OC)[C@H](C)C(=O)N[C@@H](C(=O)O)CCC(=O)N1C` [MICROCYSTIN-LR] (R[Adda][d(γGlu)][NMeDha][dA]L[dAsp(3S-Me)]-OH; lactam N-7), the Km came out at 12.4 µM in data set [1], 20 µM in data set [2] and 12.4 µM in data set [3]. The Activity entry was “substrate [(+)]” in data set [4], “is not a substrate [(-)]” in data set [5], “is not a substrate [(-)]” in data set [6] and “is not a substrate [(-)]” in data set [7].
